Like-named read-outs stand apart in the source and are kept apart here.
Tested on: male C57BL/6J mice
Assay: Fasting-induced feeding behavior (food intake) of mice
Assay type: in vivo
Settings: oral dose 2 μmol per mouse, 30 min before food
Procedure: The effectiveness of selected compounds of the invention on fasting-induced feeding behavior of mice was investigated.
The experiments were performed according to Asakawa A et al. (Asakawa A et al., Gut 2003, 52: 947-952) with the following technical details:
Preparation of compounds of the invention: dissolved in dimethylsulfoxide (DMSO) and then diluted in distilled water (i.e. 0.5, 1 and 10% DMSO for 0.5, 1 and 2 μmol/mouse, respectively);
Preparation of reference substance (positive control) sibutramine: dissolved in distilled water;
Control substance (negative vehicle control): 10% DMSO in distilled water (compounds of the invention); distilled water (sibutramine);
Route of administration: p.o.;
Pretreatment time: 30 min before presenting the food to the animals;
Volume of administration: 0.5 ml/mouse;
Animals: male C57BL/6J mice;
Body weight range: 18.3-21.4 g

[1] = 20 min, read-out: change of food intake - compounds versus vehicle treated negative control, at 20 min
[2] = 1 h, read-out: change of food intake - compounds versus vehicle treated negative control, at 1 h
[3] = 2 h, read-out: change of food intake - compounds versus vehicle treated negative control, at 2 h
[4] = 4 h, read-out: change of food intake - compounds versus vehicle treated negative control, at 4 h

Compound | change in vivo at 2 µmol/mouse [1] [%] | change in vivo at 2 µmol/mouse [2] [%] | change in vivo at 2 µmol/mouse [3] [%] | change in vivo at 2 µmol/mouse [4] [%]
CC(C)(N)C(=O)N[C@H](Cc1c[nH]c2ccccc12)c1nnc(CCc2c[nH]c3ccccc23)n1Cc1cccc2ccccc12 [Compound 5, (R)-N-(1-(5-(2-(1H-indol-3-yl)ethyl)-4-(naphthalen-1-ylmethyl)-4H-1,2,4-triazol-3-yl)-2-(1H-indol-3-yl)ethyl)-2-amino-2-methylpropanamide] | -56 | -58 | -53 | -51
CC(C)(N)C(=O)N[C@H](Cc1c[nH]c2ccccc12)c1nnc(CCCc2c[nH]c3ccccc23)n1Cc1cccc2ccccc12 [Compound 11, (R)-N-(1-(5-(3-(1H-indol-3-yl)propyl)-4-(naphthalen-1-ylmethyl)-4H-1,2,4-triazol-3-yl)-2-(1H-indol-3-yl)ethyl)-2-amino-2-methylpropanamide] | -56 | -65 | -55 | -55
CC(C)(N)C(=O)N[C@H](Cc1c[nH]c2ccccc12)c1nnc(CCc2ccccc2)n1Cc1cccc2ccccc12 [Compound 27, (R)-N-(2-(1H-indol-3-yl)-1-(4-(naphthalen-1-ylmethyl)-5-phenethyl-4H-1,2,4-triazol-3-yl)ethyl)-2-amino-2-methylpropanamide] | -57 | -58 | -48 | -38
CC(C)(N)C(=O)N[C@H](Cc1c[nH]c2ccccc12)c1nnc(CCc2c[nH]c3ccccc23)n1Cc1ccc(Cl)c(Cl)c1 [Compound 28, (R)-N-(1-(5-(2-(1H-indol-3-yl)ethyl)-4-(3,4-dichlorobenzyl)-4H-1,2,4-triazol-3-yl)-2-(1H-indol-3-yl)ethyl)-2-amino-2-methylpropanamide] | -17 | -28 | -21 | -18
COc1ccc(Cn2c(CCc3c[nH]c4ccccc34)nnc2[C@@H](Cc2c[nH]c3ccccc23)NC(=O)C2CCNCC2)c(OC)c1 [Compound 31, (R)-N-(1-(5-(2-(1H-indol-3-yl)ethyl)-4-(2,4-dimethoxybenzyl)-4H-1,2,4-triazol-3-yl)-2-(1H-indol-3-yl)ethyl)piperidine-4-carboxamide] | 50 | 20 | 16 | 9
Cc1ccc(Cn2c(CCc3ccccc3)nnc2[C@@H](Cc2c[nH]c3ccccc23)NC(=O)C(C)(C)N)cc1 [Compound 37, (R)-N-(1-(4-(4-methylbenzyl)-5-phenethyl-4H-1,2,4-triazol-3-yl)-2-(1H-indol-3-yl)ethyl)-2-amino-2-methylpropanamide] | -37 | -49 | -51 | -34
COc1ccc(Cn2c(CCc3c[nH]c4ccccc34)nnc2[C@@H](Cc2c[nH]c3ccccc23)NC(=O)C2CCNCC2)cc1 [Compound 45, (R)-N-(1-(5-(2-(1H-indol-3-yl)ethyl)-4-(4-methoxybenzyl)-4H-1,2,4-triazol-3-yl)-2-(1H-indol-3-yl)ethyl)piperidine-4-carboxamide] | -36 | -28 | -33 | -34
COc1ccc(Cn2c(CCc3ccccc3)nnc2[C@@H](Cc2c[nH]c3ccccc23)NC(=O)[C@@H]2CCCCN2)cc1 [Compound 48, (S)-N-((R)-1-(4-(4-methoxybenzyl)-5-phenethyl-4H-1,2,4-triazol-3-yl)-2-(1H-indol-3-yl)ethyl)piperidine-2-carboxamide] | -22 | -30 | -27 | -21
COc1ccc(Cn2c(CCc3ccccc3)nnc2[C@@H](Cc2c[nH]c3ccccc23)NC(=O)[C@H]2CCCCN2)cc1 [Compound 49, (R)-N-((R)-1-(4-(4-methoxybenzyl)-5-phenethyl-4H-1,2,4-triazol-3-yl)-2-(1H-indol-3-yl)ethyl)piperidine-2-carboxamide] | -59 | -48 | -39 | -23
COc1ccc(Cn2c(CCc3ccccc3)nnc2[C@@H](Cc2c[nH]c3ccccc23)NC(=O)C2CCNCC2)c(OC)c1 [Compound 62, (R)-N-(1-(4-(2,4-dimethoxybenzyl)-5-phenethyl-4H-1,2,4-triazol-3-yl)-2-(1H-indol-3-yl)ethyl)piperidine-4-carboxamide] | 56 | 68 | 50 | 26
COc1ccc(Cn2c(CCc3ccccc3)nnc2[C@@H](Cc2c[nH]c3ccccc23)NC(=O)c2cnccn2)c(OC)c1 [Compound 66, (R)-N-(1-(4-(2,4-dimethoxybenzyl)-5-phenethyl-4H-1,2,4-triazol-3-yl)-2-(1H-indol-3-yl)ethyl)pyrazine-2-carboxamide] | -56 | -40 | -45 | -51
CC(C)(N)C(=O)N[C@H](Cc1c[nH]c2ccccc12)c1nnc(CCc2ccccc2)n1CCc1ccccc1 [Compound 117, (R)-N-(1-(4,5-diphenethyl-4H-1,2,4-triazol-3-yl)-2-(1H-indol-3-yl)ethyl)-2-amino-2-methylpropanamide] | -31 | -24 | -11 | -6
CC(C)(N)C(=O)N[C@H](Cc1c[nH]c2ccccc12)c1nnc(Cc2ccccc2)n1Cc1ccc(Cl)c(Cl)c1 [Compound 118, (R)-N-(1-(4-(3,4-dichlorobenzyl)-5-benzyl-4H-1,2,4-triazol-3-yl)-2-(1H-indol-3-yl)ethyl)-2-amino-2-methylpropanamide] | -31 | -30 | -25 | -24
CC(C)(N)C(=O)N[C@H](Cc1c[nH]c2ccccc12)c1nnc(CCc2ccccc2)n1Cc1ccc(Cl)c(Cl)c1 [Compound 122, (R)-N-(1-(4-(3,4-dichlorobenzyl)-5-phenethyl-4H-1,2,4-triazol-3-yl)-2-(1H-indol-3-yl)ethyl)-2-amino-2-methylpropanamide] | -52 | -42 | -28 | -16
O=C(N[C@H](Cc1c[nH]c2ccccc12)c1nnc(CCc2ccccc2)n1-c1ccccc1)C1CCNCC1 [Compound 142, N-((R)-2-(1H-indol-3-yl)-1-(5-phenethyl-4-phenyl-4H-1,2,4-triazol-3-yl)ethyl)piperidine-4-carboxamide] | -56 | -57 | -55 | -49
COc1ccc(Cn2c(CCc3ccccc3)nnc2[C@@H](Cc2c[nH]c3ccccc23)NC(=O)C(C)(C)N)c(OC)c1 [Compound 179, N-((R)-1-(4-(2,4-dimethoxybenzyl)-5-phenethyl-4H-1,2,4-triazol-3-yl)-2-(1H-indol-3-yl)ethyl)-2-amino-2-methylpropanamide] | -25 | -39 | -40 | -38

— patent US20090042905A1, “TRIAZOLE DERIVATIVES AS LIGANDS OF G-PROTEIN COUPLED RECEPTORS” (AETERNA ZENTARIS GmbH, priority 2007, published 2009)
